Tests used:
[1] = tested on: acute pruritus induced by intradermal administration of serotonin; assay: Acute pruritus animal model induced by intradermal administration of serotonin (scratching reactions); assay type: in vivo, rats (Sprague-Dawley); conditions: rats; for inhibition of acute pruritus (number of scratching reactions) compared to the control group: 1 hour before intradermal serotonin, scratching counted for 30 minutes
Procedure: Mature male rats (Sprague-Dawley, 200 to 230 g) were used. The experimental animals were maintained at a light-and-darkness cycle of 12 hours (illuminated from 7 pm to 7 am), a temperature of 22 to 25° C., a relative humidity of 40 to 60%, and free access to water and food. The animals were randomly divided into three groups as follows: • Eight (8) rats as a control group, orally administered with 30% PEG400 as a vehicle at a dose of 5 ml/kg • Eight (8) rats, orally administered with the test compound at a dose of 10 mg/kg (5 ml/kg) • Eight (8) rats, orally administered with the test compound at a dose of 30 mg/kg (5 ml/kg)
On the day before the experiment, the skin fur on the right scapula of the rats was shaved to an area of about 2 cm square. On the day of the experiment, serotonin hydrochloride was dissolved in 0.9% physiological saline at a concentration of 4 mg/ml. The rats were placed in an acrylic box (20×30×20 cm) and adapted for 15 minutes in a quiet area, followed by intradermal administration of the dissolved serotonin in 50 μl per rat on the shaved area (Thomsen et al, Scratch induction in the rat by intradermal serotonin: a model for pruritus, Acta Derm Venereol, 2001).
Only when the rats scratched body parts within 5 cm square around the skin area where serotonin was administered, it was judged to be a valid scratching reaction.
The test compound was orally administered to the rats at a dose of 10 mg/kg (5 ml/kg) and 30 mg/kg (5 ml/kg) 1 hour before intradermal administration of serotonin.

[2] = tested on: chronic pruritus induced by administration of capsaicin immediately after birth; assay: Chronic pruritus animal model induced by subcutaneous administration of capsaicin immediately after birth (scratching reactions); assay type: in vivo, rats (Sprague-Dawley); conditions: rats, oral 30 mg/kg, 1 hour before measurement, third week after capsaicin, scratching counted for 1 hour
Procedure: Baby rats within 48 hours after birth (Sprague-Dawley, 7 to 10 g) were obtained together with the mother rats, and were used. The experimental animals were maintained at a light-and-darkness cycle of 12 hours (illuminated from 7 pm to 7 am), a temperature of 22 to 25° C., a relative humidity of 40 to 60%, and free access to water and food. Until the 21st day after birth, the baby rats were bred together with the mother rats and allowed to drink the mother's milk. After the 21st day, the baby rats were kept off the milk and separated from the mother rats. The animals were randomly divided into two groups as follows: • Seven (7) rats as a control group, orally administered with 30% PEG400 as a vehicle at a dose of 5 ml/kg • Seven (7) rats, orally administered with the test compound at a dose of 30 mg/kg (5 ml/kg) […]
On the third week after capsaicin administration, the animals were placed in an acrylic box (20×30×20 cm), adapted for 30 minutes in a quiet area, and then observed for the number of scratching behaviors for 1 hour. One continuous scratching reaction was counted as one scratching reaction. […]

With NC(=O)O[C@@H](Cn1ncnn1)c1ccccc1Cl [the test compound] the “dose dependence of the reduction of itching responses” value ([1]; oral 10 mg/kg and 30 mg/kg) was “dose-dependent”, the “inhibition of acute pruritus (number of scratching reactions) compared to the control group” value ([1]; oral 10 mg/kg) was “statistically significantly inhibited” and the “inhibition of acute pruritus (number of scratching reactions) compared to the control group” value ([1]; oral 30 mg/kg) was “statistically significantly inhibited”. For the same molecule, the “inhibition of chronic pruritus (number of scratching reactions) compared to the control group” value [2] was “statistically significantly inhibited”.
